In patent US8513303B2, “Antimicrobial agent” (De Montfort University, priority 2007, dated 2013):

Columns and labels:
[1] = tested on: Staphylococcus aureus ATCC 6538; test: Quantitative suspension test, log10 reduction in bacterial numbers; format: cell-based; details: 1% w/v H2O2
Excerpt: (§1) Neutralisation (nullification of activity) of antimicrobial agents is required to prevent inhibitory concentrations from being transferred to the recovery medium (as discussed, for example, in Russell A. D. (2004) Factors influencing the efficacy of antimicrobial agents in Principles and Practice of Disinfection Preservation and Sterilization, 4th edition, eds Fraise A. P., Lambert P. A. and Maillard J. Y., pages 98-127, Oxford: Blackwell Publishing Ltd. and Russell A. D., Ahonkhai I. and Rogers, D. T. (1979) A review: microbiological applications of the inactivation of antibiotics and other antimicrobial agents. Journal of Applied Bacteriology, 46, 207-245). Thus, samples were removed at desired time points and then any hydrogen peroxide present in the sample was neutralised (i.e. deactivated) using catalase.
(§2) In the examples, catalase from bovine liver was used to neutralise the activity of any remaining hydrogen peroxide (as described in Russell A. D., Ahonkhai I. and Rogers, D. T. (1979), A review: microbiological applications of the inactivation of antibiotics and other antimicrobial agents, Journal of Applied Bacteriology, 46, 207-245) after the appropriate contact time during the experiments. Control experiments were conducted to establish whether the neutraliser nullified the activity of hydrogen peroxide and whether the neutraliser was toxic to the micro-organisms tested.
(§3) The effect of acidic pH conditions (pH 3.47 to 3.54) were investigated with and without hydrogen peroxide and air.
(§4) A quantitative suspension test (as described in Reybrouck G. (1998), The testing of disinfectants, International Biodeterioration and Biodegradation, 41, 269-272) based on the general principles of European quantitative suspension tests (BS EN1040:2005: Chemical disinfectants and antiseptics, Quantitative suspension test for the evaluation of basic bactericidal activity of chemical disinfectants and antiseptics, Test method and requirements (phase 1), London: British Standards Institute; BS EN 1276:1997: Chemical disinfectants and antiseptics, Quantitative suspension test for the evaluation of bactericidal activity of chemical disinfectants and antiseptics used in food, industrial, domestic, and institutional areas, Test method and requirements (phase 2, step 1). London: British Standards Institute) was used to establish the basic level of activity of the catalyst in the absence of organic matter. All tests were performed independently at least three times unless otherwise stated. Low concentrations (0.2-1% w/v) of hydrogen peroxide were used so that increases in antimicrobial activity could be detected if present.
(§5) Bacteria were inoculated into 10 ml volumes of nutrient broth and incubated at 37° C. for 18 to 24 hours at a shaking speed of 100 revolutions/minute. After incubation, the bacteria were washed by centrifugation to remove the nutrient broth; supernatants were discarded and the bacterial pellets were resuspended in sterilised distilled water. 7.5 ml of the washed bacterial suspension was added to 67.5 ml of hydrogen peroxide and/or distilled water to give a specific final concentration (ranging from 0 to 1% w/v—see Tables below) of hydrogen peroxide and approximately 8 log10 colony forming units (CFU)/mL of bacteria. The resultant mixture was stirred magnetically throughout the experiment. Where applicable, 1 g (+/−0.1 g) of either modified PAN fibre (referred to as PAN1 (control) or PAN2 (control)) or catalyst (referred to as PAN1 catalyst or PAN2 catalyst or PAN3 catalyst) comprising PAN fibres was added to the resultant mixture. The experiments were performed with or without air. If air was used, 2.5 L/min was supplied via. a filtered air pump and a sterilised Pyrex gas distribution tube.
(§6) After a specific contact time (see Tables below), 1 ml aliquots were removed from the experimental flask and transferred into 9 ml of neutraliser (catalase) for 5 minutes to inactivate any remaining hydrogen peroxide.

[2] = tested on: Escherichia coli ATCC 10536; test: as above; format: cell-based; details: 0.2% w/v H2O2
Excerpt: as §1, §2, §3, §4, §5, §6

[3] = air 2.5 L/min, 50 min, listed as hydrogen peroxide
[4] = no air, 60 min, listed as hydrogen peroxide
[5] = acidic pH 3.47 to 3.54, air 2.5 L/min, 10 min
[6] = acidic pH 3.47 to 3.54, air 2.5 L/min, 20 min
[7] = acidic pH 3.47 to 3.54, air 2.5 L/min, 30 min
[8] = acidic pH 3.47 to 3.54, air 2.5 L/min, 40 min
[9] = acidic pH 3.47 to 3.54, air 2.5 L/min, 50 min
[10] = acidic pH 3.47 to 3.54, air 2.5 L/min, 60 min
[11] = acidic pH 3.47 to 3.54, no air, 10 min
[12] = acidic pH 3.47 to 3.54, no air, 20 min
[13] = acidic pH 3.47 to 3.54, no air, 30 min
[14] = acidic pH 3.47 to 3.54, no air, 40 min
[15] = acidic pH 3.47 to 3.54, no air, 50 min
[16] = acidic pH 3.47 to 3.54, no air, 60 min

OO [Example H2O2, hydrogen peroxide]
Mean log10 reduction in CFU/ml ([1]; air 2.5 L/min, 10 min): 0.61 log10 CFU/ml
Mean log10 reduction in CFU/ml ([1]; air 2.5 L/min, 20 min): 1.27 log10 CFU/ml
Mean log10 reduction in CFU/ml ([1]; air 2.5 L/min, 30 min): 2.57 log10 CFU/ml
Mean log10 reduction in CFU/ml ([1]; air 2.5 L/min, 40 min): 3.84 log10 CFU/ml
Mean log10 reduction in CFU/ml ([1]; air 2.5 L/min, 50 min): 5.07 log10 CFU/ml
Mean log10 reduction in CFU/ml [1, 3]: 5 log10 CFU/ml
Mean log10 reduction in CFU/ml ([1]; air 2.5 L/min, 60 min): 5.40 log10 CFU/ml
Mean log10 reduction in CFU/ml ([1]; no air, 10 min): 0.70 log10 CFU/ml
Mean log10 reduction in CFU/ml ([1]; no air, 20 min): 1.43 log10 CFU/ml
Mean log10 reduction in CFU/ml ([1]; no air, 30 min): 2.88 log10 CFU/ml
Mean log10 reduction in CFU/ml ([1]; no air, 40 min): 3.89 log10 CFU/ml
Mean log10 reduction in CFU/ml ([1]; no air, 50 min): 4.97 log10 CFU/ml
Mean log10 reduction in CFU/ml ([1]; no air, 60 min): 5.37 log10 CFU/ml
Mean log10 reduction in CFU/ml [1, 4]: 5 log10 CFU/ml
Mean log10 reduction in CFU/ml [1, 5]: 1.00 log10 CFU/ml
Mean log10 reduction in CFU/ml [1, 6]: 1.86 log10 CFU/ml
Mean log10 reduction in CFU/ml [1, 7]: 2.33 log10 CFU/ml
Mean log10 reduction in CFU/ml [1, 8]: 2.83 log10 CFU/ml
Mean log10 reduction in CFU/ml [1, 9]: 2.23 log10 CFU/ml
Mean log10 reduction in CFU/ml [1, 10]: 3.45 log10 CFU/ml
Mean log10 reduction in CFU/ml [1, 11]: 0.69 log10 CFU/ml
Mean log10 reduction in CFU/ml [1, 12]: 0.72 log10 CFU/ml
Mean log10 reduction in CFU/ml [1, 13]: 1.30 log10 CFU/ml
Mean log10 reduction in CFU/ml [1, 14]: 2.03 log10 CFU/ml
Mean log10 reduction in CFU/ml [1, 15]: 2.90 log10 CFU/ml
Mean log10 reduction in CFU/ml [1, 16]: 3.23 log10 CFU/ml
Mean log10 reduction in CFU/ml ([1]; room temperature, no air, no catalyst, 10 min): 0.43 log10 CFU/ml
Mean log10 reduction in CFU/ml ([1]; room temperature, no air, no catalyst, 20 min): 1.21 log10 CFU/ml
Mean log10 reduction in CFU/ml ([1]; room temperature, no air, no catalyst, 30 min): 2.25 log10 CFU/ml
Mean log10 reduction in CFU/ml ([1]; room temperature, no air, no catalyst, 40 min): 3.92 log10 CFU/ml
Mean log10 reduction in CFU/ml ([1]; room temperature, no air, no catalyst, 50 min): 4.57 log10 CFU/ml
Mean log10 reduction in CFU/ml ([1]; room temperature, no air, no catalyst, 60 min): 5.10 log10 CFU/ml
Mean log10 reduction in CFU/ml ([2]; air 2.5 L/min, 10 min): 1.33 (0.27) log10 CFU/ml
Mean log10 reduction in CFU/ml ([2]; air 2.5 L/min, 20 min): 2.68 (0.22) log10 CFU/ml
Mean log10 reduction in CFU/ml ([2]; air 2.5 L/min, 30 min): 3.98 (0.28) log10 CFU/ml
Mean log10 reduction in CFU/ml ([2]; air 2.5 L/min, 40 min): 4.79 (0.43) log10 CFU/ml
Mean log10 reduction in CFU/ml ([2]; air 2.5 L/min, 50 min): >5.58 (0) log10 CFU/ml
Mean log10 reduction in CFU/ml [2, 3]: greater than 5 log10 CFU/ml
Mean log10 reduction in CFU/ml ([2]; air 2.5 L/min, 60 min): >5.58 (0) log10 CFU/ml
Mean log10 reduction in CFU/ml ([2]; no air, 10 min): 1.01 (0.36) log10 CFU/ml
Mean log10 reduction in CFU/ml ([2]; no air, 20 min): 2.20 (0.42) log10 CFU/ml
Mean log10 reduction in CFU/ml ([2]; no air, 30 min): 2.67 (0.52) log10 CFU/ml
Mean log10 reduction in CFU/ml ([2]; no air, 40 min): 3.52 (0.57) log10 CFU/ml
Mean log10 reduction in CFU/ml ([2]; no air, 50 min): 4.21 (0.19) log10 CFU/ml
Mean log10 reduction in CFU/ml ([2]; no air, 60 min): 4.76 (0.39) log10 CFU/ml
Mean log10 reduction in CFU/ml [2, 4]: 4.76 log10 CFU/ml
Mean log10 reduction in CFU/ml [2, 5]: 2.16 log10 CFU/ml
Mean log10 reduction in CFU/ml [2, 6]: 3.35 log10 CFU/ml
Mean log10 reduction in CFU/ml [2, 7]: 4.46 log10 CFU/ml
Mean log10 reduction in CFU/ml [2, 8]: ≧5.46 log10 CFU/ml
Mean log10 reduction in CFU/ml ([2]; acidic pH 3.47 to 3.54, air 2.5 L/min, 40 min, listed as hydrogen peroxide): greater than 5 log10 CFU/ml
Mean log10 reduction in CFU/ml [2, 9]: >5.46 log10 CFU/ml
Mean log10 reduction in CFU/ml [2, 10]: >5.46 log10 CFU/ml
Mean log10 reduction in CFU/ml [2, 11]: 2.43 log10 CFU/ml
Mean log10 reduction in CFU/ml [2, 12]: 3.40 log10 CFU/ml
Mean log10 reduction in CFU/ml [2, 13]: 4.21 log10 CFU/ml
Mean log10 reduction in CFU/ml [2, 14]: ≧5.11 log10 CFU/ml
Mean log10 reduction in CFU/ml ([2]; acidic pH 3.47 to 3.54, no air, 40 min, listed as hydrogen peroxide): greater than 5 log10 CFU/ml
Mean log10 reduction in CFU/ml [2, 15]: ≧5.30 log10 CFU/ml
Mean log10 reduction in CFU/ml [2, 16]: >5.46 log10 CFU/ml
